Measured values: PubChem BioAssay AID624446 (The Scripps Research Institute Molecular Screening Center, 2012)
Calls of active or inactive are those of the source.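 How the source made its calls: active means compounds blocking protein phosphatase 1 with half-maximal inhibitory concentration IC50 under 50 µM; inactive means IC50 of 50 µM or more.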

Target: Serine/threonine-protein phosphatase PP1-alpha catalytic subunit (Homo sapiens) (UniProt P62136)
Experiment: dose-dependent inhibition of PP1 catalytic subunit – biochemical, 32P-phosphohistone, radiolabel, dose response, round 5, selectivity assay for PP5 inhibitor project, late-stage follow-up (AID 624446)
Settings: purified PP1alpha, 32P-phosphohistone dephosphorylation, scintillation

Serine/threonine-protein phosphatase PP1-alpha catalytic subunit (Homo sapiens), sequence (P62136 whole entry, looked up): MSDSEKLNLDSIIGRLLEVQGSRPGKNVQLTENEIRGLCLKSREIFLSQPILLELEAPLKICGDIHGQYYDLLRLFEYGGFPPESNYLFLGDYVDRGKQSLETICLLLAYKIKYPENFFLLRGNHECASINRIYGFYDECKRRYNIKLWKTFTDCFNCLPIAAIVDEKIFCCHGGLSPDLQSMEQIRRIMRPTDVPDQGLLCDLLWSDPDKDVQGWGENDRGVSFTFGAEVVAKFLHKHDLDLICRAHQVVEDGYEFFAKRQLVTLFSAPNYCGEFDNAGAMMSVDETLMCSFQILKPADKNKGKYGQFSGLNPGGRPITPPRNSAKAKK

`CC(C)Oc1ccccc1-c1n[nH]nc1C(=O)O` was tested, and the IC50 was “inactive”.
